Assay results from ChEMBL document CHEMBL1127908, “A congener study of zileuton reveals interesting effects on glucuronidation rates” (Bioorg Med Chem Lett, 1994).

Species on record: Homo sapiens
Assay: Tested for its rate of glucuronidation in 0.5-2.5 mg/mL of human microsomal protein
Format: functional
Details: not given
With `CC(c1cc2ccncc2s1)N(O)C(N)=O` (single isomer, unassigned; (+)) [listing 1 of 2 here] the Glucuronidation rate (nM min-1 mg-1) was 0.053.
`CC(c1cc2ncccc2s1)N(O)C(N)=O` (single isomer, unassigned; (+)) [listing 1 of 2 here] gave a Glucuronidation rate (nM min-1 mg-1) of 0.006.
Compound `CC(c1cc2ccccc2s1)N(O)C(N)=O` (single isomer, unassigned; (-)) has a Glucuronidation rate (nM min-1 mg-1) of 0.155.
Work on `CC(c1cc2cccnc2s1)N(O)C(N)=O` (single isomer, unassigned; (-)) [listing 1 of 2 here] yielded a Glucuronidation rate (nM min-1 mg-1) of 0.058.
With `CC(c1cc2ccccc2s1)N(O)C(N)=O` (stereo in doubt; (+)-1b) the Glucuronidation rate (nM min-1 mg-1) was 0.025.
`CC(c1cc2cccnc2s1)N(O)C(N)=O` (stereo in doubt; (+)-2b) [listing 1 of 2 here] showed a Glucuronidation rate (nM min-1 mg-1) of 0.012.
`CC(c1cc2ccncc2s1)N(O)C(N)=O` (stereo in doubt; (-)-3a) [listing 1 of 2 here] showed a Glucuronidation rate (nM min-1 mg-1) of 0.241.
Work on `CC(c1cc2ncccc2s1)N(O)C(N)=O` (stereo in doubt; (-)-4a) [listing 1 of 2 here] yielded a Glucuronidation rate (nM min-1 mg-1) of 0.037.

Species on record: Homo sapiens
Assay: Tested for its rate of glucuronidation in 0.5-2.5 mg/mL of human microsomal protein; Not detected
Format: functional
Details: not given
With `CC(c1cc2cccnc2o1)N(O)C(N)=O` (single isomer, unassigned; (-)) [listing 1 of 2 here] the Glucuronidation rate was “Not detected”.

Species on record: Homo sapiens
Assay: Tested for its rate of glucuronidation in 0.5-2.5 mg/mL of human microsomal protein; not detected
Format: functional
Details: not given
In the case of `CC(c1cc2cccnc2o1)N(O)C(N)=O` (stereo in doubt; (+)-5b) [listing 1 of 2 here], the Glucuronidation rate is reported as “Not detected”.

Species on record: Homo sapiens
Assay: Concentration required for the inhibition of LTB4 production in human whole blood
Format: functional, organism-based
Details: not given
In the case of `CC(c1cc2ccncc2s1)N(O)C(N)=O` (single isomer, unassigned; (+)) [listing 2 of 2 here], the IC50 is reported as 1.5 µM.
In the case of `CC(c1cc2ncccc2s1)N(O)C(N)=O` (single isomer, unassigned; (+)) [listing 2 of 2 here], the IC50 is reported as 3.12 µM.
Work on `CC(c1cc2cccnc2o1)N(O)C(N)=O` (single isomer, unassigned; (-)) [listing 2 of 2 here] yielded an IC50 of 11.3 µM.
Work on `CC(c1cc2cccnc2s1)N(O)C(N)=O` (single isomer, unassigned; (-)) [listing 2 of 2 here] yielded an IC50 of 3.7 µM.
In the case of `CC(c1cc2ccccc2s1)N(O)C(N)=O` (single isomer, unassigned; (-)) [ZILEUTON], the IC50 is reported as 1.88 µM.
With `CC(c1cc2ccccc2s1)N(O)C(N)=O` (stereo in doubt; (+)-1b) [ZILEUTON] the IC50 was 0.64 µM.
`CC(c1cc2cccnc2s1)N(O)C(N)=O` (stereo in doubt; (+)-2b) [listing 2 of 2 here] gave an IC50 of 0.95 µM.
With `CC(c1cc2cccnc2o1)N(O)C(N)=O` (stereo in doubt; (+)-5b) [listing 2 of 2 here] the IC50 was 2.78 µM.
Compound `CC(c1cc2ncccc2s1)N(O)C(N)=O` (stereo in doubt; (-)-4a) [listing 2 of 2 here] has an IC50 of 6.62 µM.

Same assay, conditions: Homo sapiens, Blood
With `CC(c1cc2ccncc2s1)N(O)C(N)=O` (stereo in doubt; (-)-3a) [listing 2 of 2 here] the IC50 was 2 µM.
